According to ChEMBL document CHEMBL1201862, “PubChem BioAssay data set” (2004):
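Cultured in 96-well plates, cells were exposed to test compound for 48 hours across five concentrations. The concentration for 50% growth inhibition is given as GI50.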 The source made the active and inactive calls. Rule as the data show it: active = GI50 up to about 1.1 µM and inactive = higher.

Columns and labels:
Assay in all cases: NCI-60 cell line screen, 48 h
786-0 = tested on: 786-0
A498 = tested on: A498
DLD-1 = tested on: DLD-1
DMS-114 = tested on: DMS-114
HCC 2998 = tested on: HCC 2998
HOP-62 = tested on: HOP-62
KM-20L2 = tested on: KM-20L2
M19-MEL = tested on: M19-MEL
NCI-H460 = tested on: NCI-H460
NCI-H522 = tested on: NCI-H522
SN12C = tested on: SN12C
SNB-75 = tested on: SNB-75
SNB-78 = tested on: SNB-78
HL-60 = tested on: HL-60
HOP-18 = tested on: HOP-18
Hs-578T = tested on: Hs-578T
MDA-MB-435 = tested on: MDA-MB-435
MDA-N = tested on: MDA-N
PC-3 = tested on: PC-3
T47D = tested on: T47D

Measured: GI50

CC(=O)NC(CCCNC(=O)N(C)N=O)C(=O)NCc1ccccc1 (stereo not drawn)
inactive: 786-0 > 100 µM | A498 > 100 µM | DLD-1 > 100 µM | DMS-114 > 100 µM | HCC 2998 > 100 µM | HOP-62 > 100 µM | KM-20L2 > 100 µM | M19-MEL > 100 µM | NCI-H460 > 100 µM | NCI-H522 > 100 µM | SN12C > 100 µM | SNB-75 52.1 µM | SNB-78 > 100 µM

C[C@]12CCC(=O)C=C1CC[C@@H]1C2CC[C@]2(C)NC(=O)C(C#N)CC12 (stereo partly drawn)
inactive: 786-0 > 100 µM | A498 > 100 µM | DLD-1 > 100 µM | DMS-114 > 100 µM | HCC 2998 > 100 µM | HL-60 > 100 µM | HOP-62 39.6 µM | KM-20L2 53.6 µM | M19-MEL > 100 µM | NCI-H460 > 100 µM | SNB-75 > 100 µM | SNB-78 > 100 µM

COc1cc(/C=C2/C(=O)NC(Cc3cc(OC)c(OC)c(C)c3OC)C(=O)N2Cc2ccccc2)c(OC)c(C)c1OC (stereo not drawn)
inactive: 786-0 79.3 µM | A498 44.4 µM | DLD-1 72.3 µM | DMS-114 38.2 µM | HCC 2998 55.1 µM | HL-60 24.4 µM | HOP-18 18.3 µM | HOP-62 > 100 µM | KM-20L2 95.9 µM | M19-MEL 47.4 µM | NCI-H460 38.1 µM | NCI-H522 18.2 µM | SN12C 54.3 µM | SNB-75 45.6 µM

Cc1nc2ccc(C(F)(F)F)cc2nc1Nc1ccc(Cl)c(Cl)c1
inactive: 786-0 4.69 µM | DLD-1 9.42 µM | HCC 2998 3.72 µM | HL-60 5.62 µM | HOP-18 15.3 µM | HOP-62 16 µM | KM-20L2 4.11 µM | M19-MEL 12.1 µM | NCI-H460 2.65 µM | SN12C 11.9 µM | SNB-75 > 10 µM | SNB-78 14.7 µM

CC1=N/C(=C/c2ccc3c(c2)OCO3)C(=O)O1
inactive: 786-0 > 100 µM | A498 > 100 µM | DMS-114 > 100 µM | HOP-18 > 100 µM | KM-20L2 > 100 µM | M19-MEL > 100 µM | NCI-H522 > 100 µM | SN12C > 100 µM | SNB-75 > 100 µM | SNB-78 > 100 µM

NC(=O)c1ccccc1NC(=O)C(=O)Nc1n[nH]c(N)n1
inactive: 786-0 > 100 µM | A498 > 100 µM | DLD-1 > 100 µM | HCC 2998 > 100 µM | HL-60 > 100 µM | HOP-18 > 100 µM | HOP-62 > 100 µM | KM-20L2 > 100 µM | M19-MEL > 100 µM | NCI-H460 > 100 µM | NCI-H522 > 100 µM | SN12C > 100 µM | SNB-75 > 100 µM | SNB-78 > 100 µM

CC(=O)Nc1cccc2[nH]c3ccccc3c(=O)c12
inactive: 786-0 17.6 µM | A498 14.9 µM | DLD-1 15.3 µM | DMS-114 25.6 µM | HL-60 12.6 µM | HOP-18 6.82 µM | KM-20L2 21.1 µM | M19-MEL 21.8 µM | NCI-H460 17 µM | NCI-H522 10.3 µM | SN12C 22.4 µM | SNB-75 8.67 µM

Cc1ccc2oc(=O)c(-c3ccccc3)nc2c1
inactive: 786-0 23.3 µM | DLD-1 11.7 µM | HCC 2998 19.9 µM | HL-60 > 10 µM | HOP-18 34.2 µM | HOP-62 36.7 µM | M19-MEL 23.1 µM | NCI-H460 36.3 µM | NCI-H522 15.3 µM | SN12C 31.8 µM | SNB-75 37.5 µM

COc1ccc(C(c2ccc(C(C)C)cc(=O)c2O)c2c(O)cc3oc(-c4ccccc4)cc(=O)c3c2O)cc1 (stereo not drawn)
inactive: 786-0 3.57 µM | A498 18.6 µM | DLD-1 4.11 µM | HCC 2998 3.58 µM | HL-60 4.4 µM | HOP-18 17.3 µM | HOP-62 2.07 µM | KM-20L2 9.82 µM | M19-MEL 7.33 µM | NCI-H460 3.37 µM | SN12C 16.5 µM | SNB-75 4.51 µM | SNB-78 20.8 µM

CC(=O)C1CC(C)=CCC12C(=O)Nc1ccccc12 (stereo not drawn)
inactive: 786-0 > 100 µM | A498 > 100 µM | DLD-1 > 100 µM | DMS-114 > 100 µM | HCC 2998 > 100 µM | HL-60 > 100 µM | HOP-18 > 100 µM | HOP-62 > 100 µM | KM-20L2 > 100 µM | NCI-H460 > 100 µM | NCI-H522 > 100 µM | SN12C > 100 µM | SNB-75 > 100 µM

CCC(C)C(=O)c1c(O)c(C/C=C(\C)CCC=C(C)C)c(O)c2c(C(O)CC)cc(=O)oc12 (stereo not drawn)
active: DMS-114 0.498 µM | HCC 2998 0.358 µM | NCI-H522 0.871 µM
inactive: A498 2.05 µM | DLD-1 1.55 µM | HL-60 1.46 µM | HOP-62 1.95 µM | KM-20L2 1.23 µM | M19-MEL 2.28 µM | NCI-H460 2.3 µM | SN12C 1.71 µM | SNB-75 1.49 µM | SNB-78 3.89 µM

CC1=NN(c2ccccc2)C(=O)C12[C@H](c1ccccc1)C2(C#N)C#N (stereo partly drawn)
inactive: 786-0 2.41 µM | A498 16.9 µM | DLD-1 2 µM | HCC 2998 18.5 µM | HL-60 2.55 µM | HOP-18 7.48 µM | HOP-62 17.3 µM | KM-20L2 11.8 µM | M19-MEL 2.51 µM | NCI-H460 17.5 µM | NCI-H522 2.88 µM | SN12C 3.95 µM | SNB-75 6.11 µM | SNB-78 13.8 µM

O=C(CC/C(C/C(=N/O)c1ccc(F)cc1)=N/O)N(Cc1ccccc1)Cc1ccccc1
inactive: 786-0 > 100 µM | A498 > 100 µM | DLD-1 > 100 µM | DMS-114 > 100 µM | HCC 2998 > 100 µM | HL-60 > 100 µM | HOP-18 > 100 µM | HOP-62 > 100 µM | KM-20L2 > 100 µM | M19-MEL > 100 µM | NCI-H460 > 100 µM | NCI-H522 > 100 µM | SN12C > 100 µM | SNB-75 > 100 µM

COc1ccc2c(c1)O[C@H]1c3ccc(O)cc3OC[C@@H]21
inactive: DLD-1 34.8 µM | HCC 2998 22.9 µM | HL-60 18.1 µM | HOP-18 93.5 µM | HOP-62 45.5 µM | KM-20L2 31.6 µM | M19-MEL 18 µM | NCI-H460 35.1 µM | NCI-H522 22.7 µM | SN12C 38.8 µM | SNB-75 11.2 µM | SNB-78 29.2 µM

C[C@H]1COC(c2ccccn2)=N1
inactive: A498 > 100 µM | DLD-1 > 100 µM | HCC 2998 > 100 µM | HL-60 > 100 µM | HOP-18 > 100 µM | HOP-62 > 100 µM | KM-20L2 > 100 µM | M19-MEL > 100 µM | NCI-H460 > 100 µM | NCI-H522 > 100 µM | SN12C > 100 µM | SNB-75 > 100 µM | SNB-78 > 100 µM

CC12CCC3C(CCC4=CC(O)CCC43C=O)C1(O)CCC2c1ccc(=O)oc1 (stereo not drawn)
active: A498 0.00802 µM | DMS-114 0.0014 µM | HCC 2998 0.021 µM | HL-60 0.00395 µM | HOP-18 0.0107 µM | HOP-62 0.05 µM | KM-20L2 0.00832 µM | M19-MEL 0.0128 µM | NCI-H460 0.00182 µM | NCI-H522 0.0015 µM | SN12C 0.00438 µM | SNB-75 0.011 µM | SNB-78 0.0075 µM

COc1ccc(/C=c2/s/c(=C(\C#N)c3nc4ccccc4[nH]3)n(-c3ccccc3)c2=O)cc1
inactive: 786-0 12.8 µM | A498 24.8 µM | DLD-1 > 100 µM | DMS-114 91 µM | HCC 2998 > 82.8 µM | HL-60 > 100 µM | HOP-18 25 µM | HOP-62 17.1 µM | Hs-578T 4.45 µM | KM-20L2 > 100 µM | M19-MEL > 100 µM | MDA-MB-435 31.8 µM | MDA-N 30.8 µM | NCI-H460 9.75 µM | NCI-H522 > 60.3 µM | PC-3 24 µM | SN12C > 80.2 µM | SNB-75 > 26.4 µM | T47D > 100 µM

COc1ccc(C2c3cc4c(cc3OC(N3CCOCC3)C2C)OCO4)cc1OC (stereo not drawn)
inactive: 786-0 8.15 µM | A498 6.46 µM | HCC 2998 5.53 µM | HL-60 3.06 µM | HOP-62 12 µM | Hs-578T 3.51 µM | MDA-MB-435 2.04 µM | MDA-N 1.86 µM | NCI-H460 6.3 µM | NCI-H522 5.51 µM | PC-3 6.43 µM | SN12C 22.6 µM | SNB-75 2.99 µM | T47D 4.99 µM

C=C(Cl)C(Br)(CCl)CCC(Br)C(C)(C)Cl (stereo not drawn)
inactive: 786-0 1.95 µM | A498 17.7 µM | HCC 2998 14.1 µM | HL-60 2.43 µM | HOP-62 2.76 µM | Hs-578T 3.66 µM | MDA-MB-435 3.57 µM | MDA-N 3.49 µM | NCI-H460 6.81 µM | NCI-H522 3.42 µM | PC-3 6.12 µM | SN12C 2.84 µM | SNB-75 3.6 µM | T47D 1.15 µM

NCCCCNCCCNC(=O)c1nc(-c2nc(CCN)sc2Cl)sc1Cl
inactive: A498 > 100 µM | DLD-1 83 µM | DMS-114 18.8 µM | HCC 2998 > 100 µM | HL-60 > 100 µM | HOP-62 59.7 µM | KM-20L2 > 100 µM | M19-MEL > 100 µM | NCI-H460 27.7 µM | NCI-H522 21 µM | SN12C > 100 µM | SNB-75 72.9 µM | SNB-78 > 100 µM
